Results filed as inconclusive are left out. Activity calls are given as the source filed them. How the calls were made is not given here.
tested on: not listed separately; experiment: cytotoxicity in HEK293 background cells – cell-based, dry powder, set 2, counter-screen for EBV LMP1 inhibitor project, dose response (AID 624374); conditions: HEK293 viability counterscreen, plate reader; at 30 µM (top of the series)

SMILES | activity change, negative = viability loss
CN(C)C(=O)c1cccc(-c2cccc(-c3nc(C(=O)NCc4ccccc4)cc4c3[C@@H](CCO)N([S@](=O)C(C)(C)C)C4)c2)c1 | -12.3% (inactive)
Cc1noc(C)c1S(=O)(=O)Nc1ccc2c(c1)C(=O)N([C@@H](C)CO)C[C@H](C)[C@H](CN(C)Cc1ccc(C(F)(F)F)cc1)OCCCC[C@@H](C)O2 | 11.8% (inactive)
C[C@H](NC(=O)C[C@@H]1C=C[C@H](NC(=O)Cc2ccccn2)[C@H](CO)O1)c1ccccc1 | 3.96% (inactive)

same assay, conditions: HEK293 viability counterscreen, plate reader; at 35 µM (top of the series)

SMILES | activity change, negative = viability loss
N#C[C@H]1N[C@H](CO)[C@H]1c1ccc(C#Cc2ccccc2F)cc1 | -10.8% (inactive)
CN(C)c1ccc2c(c1)[C@@H]1C[C@@H](CC(=O)NCc3ccc(Oc4ccccc4)cc3)O[C@H](CO)[C@@H]1O2 | -4.49% (inactive)
O=C(C[C@@H]1C[C@@H]2c3cc(NS(=O)(=O)c4ccc(F)cc4)ccc3O[C@@H]2[C@H](CO)O1)NC1CCCCC1 | 6.32% (inactive)
COc1cccc(S(=O)(=O)N(C)C[C@@H]2Oc3cc(C4=CCCCC4)ccc3S(=O)(=O)N([C@@H](C)CO)C[C@@H]2C)c1 | -1.39% (inactive)
Cc1noc(C)c1S(=O)(=O)Nc1ccc2c(c1)C(=O)N([C@@H](C)CO)C[C@@H](C)[C@H](CN(C)Cc1ccc(C(F)(F)F)cc1)OCCCC[C@@H](C)O2 | -0.939% (inactive)
O=C(C[C@@H]1C[C@@H]2c3cc(NC(=O)c4cccnc4)ccc3O[C@@H]2[C@H](CO)O1)NCC(F)(F)F | -0.478% (inactive)
O=C(C[C@@H]1CC[C@H]2[C@@H](COC[C@H](O)CN2Cc2ccc(Oc3ccccc3)cc2)O1)N1CCc2ccccc2C1 | -2.75% (inactive)
Cc1noc(C)c1S(=O)(=O)Nc1ccc2c(c1)C(=O)N([C@@H](C)CO)C[C@@H](C)[C@@H](CN(C)Cc1ccc(C(F)(F)F)cc1)OCCCC[C@@H](C)O2 | -11.2% (inactive)
C[C@H](NC(=O)C[C@H]1C[C@@H]2c3cc(NC(=O)c4cccnc4)ccc3O[C@@H]2[C@@H](CO)O1)c1ccccc1 | -6.5% (inactive)
O=C(Nc1ccc(C(F)(F)F)cc1)Nc1ccc2c(c1)[C@@H]1C[C@H](CC(=O)N3CCc4ccccc4C3)O[C@H](CO)[C@@H]1O2 | -11.3% (inactive)
COc1ccccc1C#Cc1ccc2c(c1)O[C@H](CN(C)Cc1cccnc1)[C@H](C)CN([C@H](C)CO)S2(=O)=O | 4.43% (inactive)
O=C(C[C@H]1C[C@H]2c3cc(NC(=O)c4ccc5c(c4)OCO5)ccc3O[C@H]2[C@H](CO)O1)NCc1ccc(Oc2ccccc2)cc1 | -11.7% (inactive)
C[C@H]1CN([C@@H](C)CO)C(=O)c2c(c3ccccc3n2C)-c2ccccc2CO[C@H]1CN(C)C(=O)Nc1ccc(F)cc1 | -8.86% (inactive)
Cc1cc(C(=O)Nc2ccc3c(c2)C(=O)N(C)[C@H]2CC[C@H](CC(=O)NCc4ccc(-c5ccccc5)cc4)O[C@H]2CO3)no1 | -11.4% (inactive)
COc1ccc(S(=O)(=O)N(C)C[C@@H]2Oc3ncc(/C=C/c4ccccc4)cc3C(=O)N([C@@H](C)CO)C[C@H]2C)cc1 | 5.95% (inactive)
COc1cccc(S(=O)(=O)N(C)C[C@@H]2Oc3cc(C4=CCCCC4)ccc3S(=O)(=O)N([C@H](C)CO)C[C@H]2C)c1 | -0.785% (inactive)
C[C@H]1CN([C@@H](C)CO)C(=O)Cc2cc(NC(=O)Cc3ccccc3)ccc2O[C@@H]1CN(C)Cc1ccc(C(F)(F)F)cc1 | 12.4% (inactive)
COc1ccccc1C#Cc1cnc2c(c1)C(=O)N([C@@H](C)CO)C[C@H](C)[C@@H](CN(C)C(=O)c1ccc3c(c1)OCO3)O2 | 9.4% (inactive)
O=C(C[C@@H]1C[C@H]2c3cc(NC(=O)c4ccc5c(c4)OCO5)ccc3O[C@H]2[C@H](CO)O1)NC1CCCCC1 | 2.89% (inactive)
N#C[C@H]1[C@H](c2ccc(C#Cc3ccccc3F)cc2)[C@@H](CO)N1C(=O)c1cccnc1 | 4.46% (inactive)
CC(C)NC(=O)N1Cc2cc(C(=O)NC3Cc4ccccc4C3)nc(-c3cccc(-c4cccnc4)c3)c2[C@@H]1CCO | 22.6% (inactive)
COc1ccc(-c2cccc(-c3nc(C(=O)NCC(F)(F)F)cc4c3[C@H](CCO)N([S@@](=O)C(C)(C)C)C4)c2)cc1 | -10.9% (inactive)
COc1ccc(S(=O)(=O)N(C)C[C@H]2Oc3ncc(/C=C/c4ccccc4)cc3C(=O)N([C@H](C)CO)C[C@@H]2C)cc1 | 13.6% (inactive)
C[C@@H](NC(=O)C[C@@H]1C=C[C@@H](NC(=O)Cc2ccccn2)[C@H](CO)O1)c1ccccc1 | 5.06% (inactive)
COc1ccccc1C#Cc1ccc2c(c1)O[C@H](CN(C)Cc1cccnc1)[C@H](C)CN([C@@H](C)CO)S2(=O)=O | -0.213% (inactive)
O=C(C[C@H]1C[C@@H]2c3cc(NS(=O)(=O)c4ccc(F)cc4)ccc3O[C@@H]2[C@H](CO)O1)NC1CCCCC1 | 2.73% (inactive)

SMILES | activity change, negative = viability loss
C[C@@H]1CN([C@H](C)CO)S(=O)(=O)c2ccc(C#C[C@@H](C)O)cc2O[C@H]1CN(C)Cc1ccc(-c2ccccc2)cc1 | -18.7% (inactive)
COc1ccccc1C#Cc1cnc2c(c1)C(=O)N([C@H](C)CO)C[C@H](C)[C@@H](CN(C)C(=O)c1ccc3c(c1)OCO3)O2 | 7.12% (inactive)
COc1ccccc1C#Cc1ccc([C@H]2[C@H](C#N)N(C(=O)C3CC3)[C@H]2CO)cc1 | 2.46% (inactive)
C[C@@H]1CN([C@H](C)CO)C(=O)c2c(c3ccccc3n2C)-c2ccccc2CO[C@@H]1CN(C)C(=O)Nc1ccc(F)cc1 | 6.88% (inactive)
C[C@@H](NC(=O)C[C@H]1C=C[C@@H](NC(=O)Cc2ccccn2)[C@H](CO)O1)c1ccccc1 | -2.87% (inactive)
C[C@@H](NC(=O)C[C@H]1C=C[C@@H](NC(=O)Cc2ccccn2)[C@@H](CO)O1)c1ccccc1 | 2.73% (inactive)
C/C=C/c1cccc(-c2nc(C(=O)Nc3nccs3)cc3c2[C@@H](CCO)N(C(=O)NC(C)C)C3)c1 | 4.5% (inactive)
C[C@@H]1CN([C@H](C)CO)C(=O)Cc2cc(NC(=O)Cc3ccccc3)ccc2O[C@@H]1CN(C)Cc1ccc(C(F)(F)F)cc1 | 0.279% (inactive)
C[C@@H](NC(=O)C[C@@H]1C=C[C@H](NC(=O)Cc2ccccn2)[C@@H](CO)O1)c1ccccc1 | -2.91% (inactive)
C[C@H]1CN([C@@H](C)CO)C(=O)c2c(c3ccccc3n2C)-c2ccccc2CO[C@@H]1CN(C)C(=O)Nc1ccc(F)cc1 | 2.63% (inactive)
C[C@H](NC(=O)C[C@H]1C=C[C@@H](NC(=O)Cc2ccccn2)[C@@H](CO)O1)c1ccccc1 | -1.38% (inactive)
Cc1noc(C)c1S(=O)(=O)Nc1ccc2c(c1)C(=O)N([C@H](C)CO)C[C@@H](C)[C@@H](CN(C)Cc1ccc(C(F)(F)F)cc1)OCCCC[C@@H](C)O2 | -10.4% (inactive)
CC(C)(C)[S@@](=O)N1Cc2cc(C(=O)NCc3ccccn3)nc(-c3cccc(-c4ccccc4F)c3)c2[C@H]1CCO | 2.2% (inactive)
Cc1noc(C)c1S(=O)(=O)Nc1ccc2c(c1)C(=O)N([C@H](C)CO)C[C@@H](C)[C@H](CN(C)Cc1ccc(C(F)(F)F)cc1)OCCCC[C@H](C)O2 | -6.47% (inactive)
CC(C)NC(=O)N1[C@H](CO)[C@H](c2ccc(C#CC3CCCCC3)cc2)[C@@H]1C#N | -6.23% (inactive)
C[C@@H]1CN([C@H](C)CO)C(=O)c2c(c3ccccc3n2C)-c2ccccc2CO[C@H]1CN(C)C(=O)Nc1ccc(F)cc1 | -13% (inactive)
Cc1noc(C)c1S(=O)(=O)Nc1ccc2c(c1)C(=O)N([C@H](C)CO)C[C@@H](C)[C@@H](CN(C)Cc1ccc(C(F)(F)F)cc1)OCCCC[C@H](C)O2 | -1.22% (inactive)
O=C(C[C@H]1C[C@@H]2c3cc(NC(=O)c4ccc5c(c4)OCO5)ccc3O[C@@H]2[C@@H](CO)O1)NCc1ccc(Oc2ccccc2)cc1 | -3.98% (inactive)
Cc1noc(C)c1S(=O)(=O)Nc1ccc2c(c1)C(=O)N([C@H](C)CO)C[C@@H](C)[C@H](CN(C)Cc1ccc(C(F)(F)F)cc1)OCCCC[C@@H](C)O2 | -3.71% (inactive)
COc1cccc(S(=O)(=O)N(C)C[C@H]2Oc3cc(C4=CCCCC4)ccc3S(=O)(=O)N([C@H](C)CO)C[C@H]2C)c1 | -4.57% (inactive)
Cc1noc(C)c1S(=O)(=O)Nc1ccc2c(c1)C(=O)N([C@@H](C)CO)C[C@H](C)[C@@H](CN(C)Cc1ccc(C(F)(F)F)cc1)OCCCC[C@H](C)O2 | 4.59% (inactive)
COc1cccc(S(=O)(=O)N(C)C[C@H]2Oc3cc(C4=CCCCC4)ccc3S(=O)(=O)N([C@@H](C)CO)C[C@@H]2C)c1 | 9.06% (inactive)
C[C@@H](NC(=O)C[C@H]1C=C[C@H](NC(=O)Cc2ccccn2)[C@H](CO)O1)c1ccccc1 | -7.68% (inactive)
CC(C)NC(=O)N1Cc2cc(C(=O)NC3Cc4ccccc4C3)nc(-c3cccc(-c4cccnc4)c3)c2[C@H]1CCO | 25.1% (inactive)
C[C@H]1CN([C@@H](C)CO)C(=O)c2cc(C#Cc3ccccc3F)cnc2O[C@@H]1CN(C)C(=O)C1CCCCC1 | 7.95% (inactive)

tested on: HEK293 viability counterscreen, plate reader; experiment: as above; conditions: not given

SMILES | AC35
O=C(C[C@H]1C[C@@H]2c3cc(NS(=O)(=O)c4ccc(F)cc4)ccc3O[C@@H]2[C@@H](CO)O1)NCc1ccc(Oc2ccccc2)cc1 | 23.1 µM
O=C(C[C@@H]1C[C@@H]2c3cc(NC(=O)c4ccc5c(c4)OCO5)ccc3O[C@@H]2[C@@H](CO)O1)NCc1ccc(Oc2ccccc2)cc1 | 33.8 µM
C[C@H](CO)N1C[C@H](C)[C@@H](CN(C)Cc2ccc(C(F)(F)F)cc2)Oc2ccc(NC(=O)Cc3ccccc3)cc2CC1=O | > 35 µM (inactive)
Cc1ccc(S(=O)(=O)N(C)C[C@H]2Oc3cc(C#Cc4ccncc4)ccc3S(=O)(=O)N([C@@H](C)CO)C[C@@H]2C)cc1 | > 35 µM (inactive)

— PubChem BioAssay AID624374 (Broad Institute, 2012)
